“Also recorded” adds a separate entry of the source. Read-outs that look alike come from different tables or passages of the source.
Assays:
[1] = test system: plasma alanine aminotransferase (ALT); assay: Plasma alanine aminotransferase (ALT) as biomarker of liver injury; format: in vivo, mice
Protocol: (§1) Mice were given by intraperitoneal injection (i.p.) a lethal dose of APAP (600 mg/kg in 0.45 N NaCl, pH 8.2) or the vehicle alone. Treated mice were given a single injection of 20 mg/kg, i.p., BPPA, a sPLA2 inhibitor, after a set time interval (2, 4, and 8 hours after the dose of APAP). BPPA was purchased from a commercial source (Catalog No. 53319, Sigma Aldrich, St. Louis, Mo.). All the mice were observed six times on the first day and twice daily thereafter for 14 days for any mortality. […] Plasma was obtained by centrifugation of blood samples (1000 g for 20 min) for assessment of biochemical parameters of liver injury. The remaining plasma was quick-frozen in liquid nitrogen and stored at −80° C. until further analysis.
Plasma was separated by centrifugation of the heparinized blood. Plasma alanine aminotransferase (ALT) was measured as a biomarker of liver injury using a kit from Thermo DMA (Waltham, Mass.). The results were ascertained by light microscopic examination of liver sections stained with hematoxylin and eosin (H&E).

[2] = mice; cited from earlier work
[3] = humans; cited from earlier work
[4] = test system: secretory phospholipase A2 (sPLA2); assay: sPLA2 activity in plasma; format: in vivo, mice
Protocol: as §1
sPLA2 activity in the plasma was measured using sPLA2 activity kit (Cayman Chemicals, Ann Arbor, Mich.) as per the manufacturer's instructions. sPLA2 activity in plasma was expressed as sPLA2 units/ml. One unit of sPLA2 hydrolyzes one μmole of substrate (diheptanoyl Thio-phosphatidylcholine) per min at 25° C. and is expressed as μmoles substrate hydrolyzed/min/ml.

[5] = test system: Male Swiss Webster mice given a lethal dose of acetaminophen (APAP); assay: Survival of mice given a lethal dose of APAP, with or without BPPA treatment; format: in vivo; settings: for mortality: APAP alone
Protocol: Male Swiss Webster mice weighing between 25-30 g were obtained from Harlan Laboratories (Indianapolis, Ind.). Mice had unlimited access to rodent chow (Harlan Teklad Rat Chow No. 7001, Madison, Wis.) and water. The mice were housed over sawdust bedding free of any known chemical contaminants (Sani-chips; Harlan Teklad, Madison, Wis.) in air conditioned quarters (21±1° C.) with a 12 h photoperiod. All animal husbandry and handling conditions were as per the NIH Guide for Care and Use of Laboratory Animals. Research protocols were approved by the ULM Institutional Animal Care and Use Committee (IACUC).
as §1

[6] = test system: mice lethally poisoned with thioacetamide; assay: Rescue of mice lethally poisoned with thioacetamide by BPPA; format: in vivo; settings: data not shown
Excerpt: In addition, I have shown that sPLA2 mediates the liver injury initiated by thioacetamide, another hepatotoxicant, by showing mice lethally poisoned with thioacetamide were rescued by inhibiting sPLA2 with BPPA (data not shown).

[7] = test system: rats receiving chlordecone (CD)+CCl4; assay: Survival after chlordecone + CCl4 combination with BPPA treatment; format: in vivo; settings: BPPA 20 mg/kg 1 hour after CCl4 injection; rats on chlordecone; data not shown
Protocol: A combination of two chemicals, which are known to be nontoxic individually at very low levels, is known to be highly toxic when combined in mammals. One of these is a chlorinated pesticide known as KEPONE™, which is commonly known as chlordecone. The other is the organic solvent, carbon tetrachloride (CCl4). Either chemical will be toxic if given at a sufficient dose. For example, chlordecone, administered to older rats at 120 mg/kg causes central nervous system (CNS) toxicity such as tremors, convulsions and death. CCl4 injected or given orally at 4 ml/kg causes severe liver necrosis, liver failure and death. […] Likewise, exposing rats to a single dose of 100 μl/kg CCL4, i.p. led to the classic centrilobular injury by 3 hours, which escalated to about 4 fold injury in the liver by 12 hours. However, by 24 hours, the liver injury was repaired and no liver injury was observed. In contrast, if the same dose of CCl4 was given to rats maintained on dietary 10 ppm chlordecone for 15 days, on day 16, all rats died within 3 days after injecting CCl4, which is about a 67-fold amplification of the toxicity for CCl4 (Mehendale, 1994).
Using this combination of chlordecone and CCL4, BPPA (20 mg/kg) was injected in the rats 1 hour after the injection of CCl4, and 90% of the rats receiving the chlordecone (CD)+CCl4 survived (data not shown).

[8] = test system: rats maintained on dietary 10 ppm chlordecone; settings: CCl4 100 μl/kg i.p. on day 16 to rats on dietary 10 ppm chlordecone for 15 days; cited from earlier work
[9] = APAP alone 600 mg/kg i.p., measured on Day 2, vs control and vehicle
[10] = BPPA 20 mg/kg 2 hours after APAP 600 mg/kg, surviving mice, over 14 days
[11] = BPPA 20 mg/kg 4 hours after APAP 600 mg/kg

Compound: CC(=O)Nc1ccc(O)cc1 [APAP, Acetaminophen]
- plasma ALT enzymatic activity [1, 9]: increased
- half-life [2]: 1 h
- half-life [3]: 2.5 h
- plasma sPLA2 enzymatic activity [4, 9]: increased
- mortality ([5]; single dose 600 mg/kg i.p., no further treatment): 80%
- mortality ([5]; at 12 hours after injection): 50%
- mortality ([5]; at 24 hours after injection): 80%

Compound: O=C(O)CC[C@@H](Cc1ccc(OCc2ccccc2)cc1)NC(=O)CCCCCCc1ccccc1 [BPPA, 5-(4-Benzyloxyphenyl)-4S-(7-phenylheptanoylamino) pentanoic acid]
- plasma ALT activity [1, 10]: down to the normal values; also recorded: decreased
- plasma ALT level [1, 11]: decreased to about normal levels
- rescue from lethal thioacetamide poisoning [6]: rescued
- mortality ([6]; mice lethally dosed with thioacetamide, treated with BPPA): less mortality
- plasma sPLA2 activity [4, 10]: down to the normal values; also recorded: decreased
- plasma sPLA2 level [4, 11]: decreased to about normal levels
- survival [7]: 90%
- survival ([5]; BPPA 20 mg/kg i.p. 4 hours after APAP 600 mg/kg i.p., observed 14 days): 70%
- survival ([5]; BPPA 20 mg/kg i.p. 8 hours after APAP 600 mg/kg i.p., observed 14 days): 60%
- cumulative mortality ([5]; at 14 days, BPPA 20 mg/kg 2 hours after acetaminophen): 10%
- survival ([5]; inhibitor administered 2 to 8 hours after APAP 600 mg/kg): 60%-80

Compound: ClC(Cl)(Cl)Cl [CCl4, carbon tetrachloride]
- amplification of the toxicity [8]: ~67 fold

— patent US20130253060A1, “Intramural Research Program of the National Institutes of Health, National Institute of Environmental Health Sciences (NIEHS)” (priority 2011, published 2013)
